Data taken from patent publication US6162799A, “Pesticidal compounds” (BTG International Limited, priority 1995, dated 2000).
Converted amounts (≈) assume the structure as drawn. Like-named read-outs stand apart in the source and are kept apart here.

How the values were obtained:
Assay type in all cases: in vivo
Musca domestica = test: Topical test on houseflies (MD); conditions: for MD (LD50): houseflies, topical on thorax, kill assessed 24 and 48 h
Protocol: (§1) Pesticidal activity was assessed against houseflies, mustard beetles, mites and whitefly using the following methods.
Houseflies (MD) (Musca domestica)
Female flies were treated on the thorax with a one microliter drop of test compound dissolved in acetone. Two replicates of 15 flies were used at each dose rate and 6 dose rates were used per compound under test. After treatment, the flies were maintained at a temperature of 20°±1° C. and kill was assessed 24 and 48 hours after treatment. LD50 values were calculated in micrograms of test compound per fly (see Sawicki et al., Bulletin of the World Health Organisation, 35, 893 (1966) and Sawicki et al., Entomologia and Exp. Appli 10, 253, (1967).
(§2) The values given are LD50 (μg/insect) or LC50 (ppm solution of test compound) unless otherwise specified.

Myzus persicae [1] = test: Aphicidal activity, topical application; conditions: 72 h
Protocol: (§3) Activity against resistant (R) and susceptible (S) strains of aphid (Myzus persicae) and Aphis gossypiae was assessed using the following two methods.
Batches of 10-15 apterous adults were removed from stock cultures and placed on leaf discs (35 mm in diameter) cut from chinese cabbage and held on an agar bed (25 mm deep) in disposable plastic containers (30 mm high). Using a Burkhard micro-applicator aphids were dosed individually with a 0.25 μm droplet of chemical diluted to the required concentration in acetone. control insects were dosed with acetone only. Mortality and other effects were scored at 24 hour intervals up to and including 72 hour post-treatment, the end-point to which the results relate.
(§4) The test was carried out using a susceptible strain of aphids (US1L) collected in the field in East Anglia, UK and an extremely resistant strain of aphids (794Jz) (R^3 esterase, sensitive ACHE) collected from glasshouses in the UK.
(§5) The values given are % mortality corrected for control data. The control comprised the test solution without active ingredient.

Tetranychus urticae = test: Immersion test on mites (TU), susceptible strain GSS; conditions: 72 h
Protocol: as §1
Mites (TU) (Tetranychus urticae)
25 adult female mites were immersed in 35 μl of a solution of the test compound in a 1:4 acetone-water mixture for 30 seconds. The treated insects were maintained at 21°±2° C. and kill was assessed 72 hours after treatment. […] Three replicates of 25 mites each were used at each dose rate and 5 or 6 dose rates were used per compound under test. LC50 values were calculated in ppm of the solution of the test compound per insect. The test was carried out using a susceptible strain of mites (GSS) supplied by Schering, AG, Berlin.
as §2

Aphis gossypiae = test: Aphicidal activity, aphid-dip; conditions: strain 81-171B, read-out: Aphid-dip result, % kill A.G. 81-171B
Protocol: as §3
(§6) Entrapment rings of fluon were painted halfway up the inside of 4 cm lengths of glass tubing (1.5 cm diameter), and squares of insect-proof gauze were attached to one end of each tube by elastic bands. Fifteen apterous adults were then gently transferred into the tubes using a sable-hair brush, and the tube sealed with a second gauze square.
(§7) Tubes containing aphids were dipped into insecticide solutions for 10 seconds, dried on blotting paper, and then inverted and tapped to cause treated aphids to fall to the unimmersed end of each tube. Handling mortality (usually zero or very slight) was scored after 1 hour, when aphids were transferred onto chinese cabbage leaf-discs (35 mm diameter) on an agar bed (25 mm in depth) in disposible plastic containers (30 mm high) and confined by applying a ring of fluon to the exposed lip of the container. Containers were stored upright, without lids, in a constant environment facility maintained at 25° C. under continuous room lighting. Mortality was assessed at 24, 48 and 72 hours. Two replicates of 15 aphids each were used at each dose rate and 5 or 6 dose rates were used per compound under test.
as §5

Myzus persicae [2] = test: Aphicidal activity, aphid-dip
Protocol: as §3, §6, §7, §4, §5

Bemisia tabaci = test: Film/vial test on whitefly (BT), susceptible strain SUD-S; conditions: 48 h; for mortality at 100 ppm: read-out: BT (SUD-S) kill at 100 ppm
Protocol: as §1
Whitefly (BT) (Bemisia tabaci)
Acetone solutions (0.100 ml) of the test compounds were placed in 10 ml glass vials and evaporated with rotation to deposit a film of the compound. Thirty adult whiteflies were placed inside the vial, then after 60 minutes, the treated insects were transferred onto untreated cotton leaf discs which were kept moist on a bed of agar gel. The temperature was maintained at 25° C. and mortality assessed after 48 hours. Three replicates were used at each of 5 to 7 dose levels per compound. LC50 values were calculated by using a computer software package ("Polo-PC" available from LeOra Software, Berkeley, Calif.). (See M. R. Cahill and B. Hackett in Proceedings Brighton Crop Protection Conference, 1992). The test was carried out using a susceptible strain of whitefly (SUD-S) which was collected in Sudan in 1978 from cotton.
as §2

Phaedon cochleariae Fab = test: Topical test on mustard beetles (PC); conditions: for PC (LD50): mustard beetles, topical, 48 h; for PC LD50 (comparative examples): Table 7
Protocol: as §1
Mustard beetles (PC) (Phaedon cochleariae Fab)
A one microliter drop of an acetone solution of the test compound was applied ventrally to adult mustard beetles using a micro drop applicator. The treated insects were maintained for 48 hours after which time kill was assessed. Two replicates each of 20 to 25 mustard beetles were used at each dose level and 5 dose levels were treated comparably. LD50 values were calculated as for houseflies.
as §2

[3] = susceptible strain USIL, read-out: Topical aphid results, % kill M.P. USIL
[4] = susceptible strain USIL, read-out: Aphid-dip result, % kill M.P. USIL
[5] = resistant strain 794JZ, read-out: Aphid-dip result, % kill M.P. 794JZ
[6] = resistant strain 794JZ, read-out: Topical aphid results, % kill M.P. 794JZ
[7] = read-out: TU LC50 (comparative examples)
[8] = read-out: BT LC50 (comparative examples)

Row | SMILES | MD (LD50) (Musca domestica) | mortality at 100 ppm (Myzus persicae [1]; [3]) | LC50 (Tetranychus urticae; read-out: TU (GSS) (LC50)) | mortality at 100 ppm (Myzus persicae [2]; [4]) | LC50 (Bemisia tabaci; read-out: BT (SUD-S) (LC50)) | also measured
1 | C[Si](C)(C)CCCCCCCCCCC1=C(O)C(=O)c2ccccc2C1=O [Example 13] | 9.9 μg/insect | 90% | 2.2 µg/mL (≈ 5.69 µM) | 90% |  | mortality at 100 ppm (Aphis gossypiae): 83%
2 | C[Si](C)(C)CCCCC1=C(O)C(=O)c2ccccc2C1=O [Example 8] | 1.8 μg/insect | 90% | 9.2 µg/mL (≈ 30.4 µM) | 90% |  | mortality at 1000 ppm (Myzus persicae [1]; resistant strain 794JZ, 1000 ppm, read-out: Topical aphid results, % kill M.P. 794JZ): 100%; mortality at 100 ppm (Myzus persicae [2]; [5]): 100%
3 | CCC[Si](C)(C)CCCCCCCCC1=C(O)C(=O)c2ccccc2C1=O [Example 17] |  | 88% | 8.4 µg/mL (≈ 21.7 µM) |  | 13 µg/mL (≈ 33.6 µM) | 
4 | C[Si](C)(C)CCCCCCC1=C(O)C(=O)c2ccccc2C1=O [Example 9, 2-Hydroxy-3(6'-trimethylsilylhexyl)-1,4-naphthoquinone] | 1.8 μg/insect | 100% | 4.5 µg/mL (≈ 13.6 µM) | 100% |  | mortality at 100 ppm (Aphis gossypiae): 71%
5 | CC(=O)OC1=C(CCCCCCCCC[Si](C)(C)C)C(=O)c2ccccc2C1=O [Example 21, 2-ethanoyloxy-3-(9-trimethylsilylnonyl)-1,4-naphthoquinone] |  |  | 2 µg/mL (≈ 4.82 µM) | 66% | < 100 µg/mL | mortality at 100 ppm (Myzus persicae [1]; [6]): 89%; mortality at 125 ppm (Myzus persicae [1]; susceptible strain USIL, 125 ppm, read-out: Topical aphid results, % kill M.P. USIL): 66%
6 | CCOCOC1=C(CCCCCCCCC[Si](C)(C)C)C(=O)c2ccccc2C1=O [Example 24, 2-ethoxymethoxy-3-(9-trimethylsilylnonyl)-1,4-naphthoquinone] |  | 16% |  |  |  | mortality at 100 ppm (Bemisia tabaci): 19%
7 | C[Si](C)(C)CCC1=C(OC(=O)c2ccccc2)C(=O)c2ccccc2C1=O [Example 1, 2-benzoyloxy-3-(2'-trimethylsilylethyl)-1,4-naphthoquinone] | > 20 μg/insect |  | 110 µg/mL (≈ 291 µM) |  |  | PC (LD50) (Phaedon cochleariae Fab): > 20 μg/insect
8 | CCC(=O)OC1=C(CCCCCCCCC[Si](C)(C)C)C(=O)c2ccccc2C1=O [Example 22, 2-propanoyloxy-3-(9-trimethylsilylnonyl)-1,4-naphthoquinone] |  | 37% |  |  |  | 
9 | CCCCCCC1=C(O)C(=O)c2ccccc2C1=O [--(CH2)5 CH3, reference compound] |  |  |  |  |  | LC50 (Tetranychus urticae; [7]): 170 µg/mL (≈ 658 µM); LC50 (Bemisia tabaci; [8]): 9.4 µg/mL (≈ 36.4 µM)
10 | CC(=O)OC1=C(CC[Si](C)(C)C)C(=O)c2ccccc2C1=O [Example 4, 2-ethanoyloxy-3-(2'-trimethylsilylethyl)-1,4-naphthoquinone] |  |  | 45 µg/mL (≈ 142 µM) | 19% | 2.9 µg/mL (≈ 9.16 µM) | mortality at 100 ppm (Myzus persicae [2]; [5]): 19%
11 | CCCCCCCCC1=C(O)C(=O)c2ccccc2C1=O [--(CH2)7 CH3, reference compound] |  |  |  |  |  | MD LD50 (comparative examples) (Musca domestica; Table 7): 1.9 μg/insect; PC LD50 (comparative examples) (Phaedon cochleariae Fab): 0.78 μg/insect
12 | C[Si](C)(C)CC1=C(O)C(=O)c2ccccc2C1=O [Example 6] |  |  |  |  | 1.7 µg/mL (≈ 6.53 µM) | 
13 | CCCC1=C(O)C(=O)c2ccccc2C1=O [--(CH2)2 CH3, reference compound] |  |  |  |  |  | LC50 (Bemisia tabaci; [8]): 80 µg/mL (≈ 370 µM)
14 | C[Si](C)(C)CCCCCC1=C(O)C(=O)c2ccccc2C1=O [Example 3, 2-hydroxy-3(5'-trimethylsilylpentyl)-1,4-naphthoquinone] | 1.3 μg/insect | 100% | 2.8 µg/mL (≈ 8.85 µM) | 100% | 6.8 µg/mL (≈ 21.5 µM) | mortality at 100 ppm (Aphis gossypiae): 100%
15 | C[Si](C)(C)CCCC1=C(O)C(=O)c2ccccc2C1=O [Example 7] | 4.4 μg/insect | 45% | 6.4 µg/mL (≈ 22.2 µM) | 90% |  | mortality at 100 ppm (Aphis gossypiae): 57%
16 | CC[Si](C)(C)CCCCCCCCC1=C(O)C(=O)c2ccccc2C1=O [Example 14, 2-hydroxy-3(8-(dimethylethylsilyl)octyl)-1,4-naphthoquinone] |  | 74% |  |  | 15 µg/mL (≈ 40.3 µM) | 
17 | CC[Si](CC)(CC)CCCCCCCCC1=C(O)C(=O)c2ccccc2C1=O [Example 15] |  | 58% | 5.2 µg/mL (≈ 13 µM) |  | 22 µg/mL (≈ 54.9 µM) | 
18 | C[Si](C)(C)CCCCCCCC1=C(O)C(=O)c2ccccc2C1=O [Example 10] | 1.7 μg/insect | 100% | 0.31 µg/mL (≈ 0.9 µM) | 100% | 8.2 µg/mL (≈ 23.8 µM) | mortality at 100 ppm (Aphis gossypiae): 100%
19 | COC1(OC)C(O)=C(CC[Si](C)(C)C)C(=O)c2ccccc21 [Example 5, 2-hydroxy-3-(2'-trimethylsilylethyl)-1,4-naphthoquinone, 1-dimethyl acetal] | > 20 μg/insect |  | 41 µg/mL (≈ 128 µM) |  |  | PC (LD50) (Phaedon cochleariae Fab): ~20 μg/insect
20 | C[Si]1(CCCCCCCCC2=C(O)C(=O)c3ccccc3C2=O)CCCC1 [Example 18, 2-Hydroxy-3-(8-(1-methyl-(tetramethylenesilyl))octyl)-1,4-naphthoquinone] |  | 59% | 3.6 µg/mL (≈ 9.36 µM) |  |  | 
21 | C[Si](C)(C)CCCCCCCCC1=C(O)C(=O)c2ccccc2C1=O [Example 11] | 2.3 μg/insect | 100% | 0.51 µg/mL (≈ 1.42 µM) | 100% | 14.6 µg/mL (≈ 40.7 µM) | mortality at 100 ppm (Myzus persicae [1]; [6]): 95%; mortality at 100 ppm (Aphis gossypiae): 100%
22 | C=COC(=O)OC1=C(CCCCCCCCC[Si](C)(C)C)C(=O)c2ccccc2C1=O [Example 23, 2-vinylcarbonato-3-(9-trimethylsilylnonyl)-1,4-naphthoquinone] |  | 63% |  |  |  | mortality at 100 ppm (Bemisia tabaci): 32%
23 | CCC[Si](CCC)(CCC)CCCCCCCCC1=C(O)C(=O)c2ccccc2C1=O [Example 16] |  | 24% |  |  |  | mortality at 100 ppm (Bemisia tabaci): 79%; PC (LD50) (Phaedon cochleariae Fab): > 20 μg/insect
24 | CCCCCCCCCCCCC1=C(O)C(=O)c2ccccc2C1=O [--(CH2)11 CH3, reference compound] |  |  |  |  |  | LC50 (Tetranychus urticae; [7]): < 60 µg/mL; LC50 (Bemisia tabaci; [8]): > 100 µg/mL
25 | CCCCCCCCCCC1=C(O)C(=O)c2ccccc2C1=O [--(CH2)9 CH3, reference compound] |  |  |  |  |  | PC LD50 (comparative examples) (Phaedon cochleariae Fab): 1.9 μg/insect
26 | C[Si](C)(C)CC=CC1=C(O)C(=O)c2ccccc2C1=O [Example 20, 2-hydroxy-3-(3-trimethylsilyl-1-propenyl)-1,4-naphthoquinone] |  |  | 21 µg/mL (≈ 73.3 µM) |  | 30 µg/mL (≈ 105 µM) | PC (LD50) (Phaedon cochleariae Fab): > 20 μg/insect
27 | C[Si]1(CCCCCCCCC2=C(O)C(=O)c3ccccc3C2=O)CCCCC1 [Example 19, 2-hydroxy-3-(8-(1-methyl-(pentamethylenesilyl))octyl)-1,4-naphthoquinone] |  |  |  |  |  | mortality at 100 ppm (Bemisia tabaci): 13%
